Values joined by “and” are separate entries in the source; they are usually repeats but may differ in a detail not shown here. Identical values can stand only once.
Columns and labels:
Test in all cases: Kinase selectivity profile assay
Format in all cases: biochemical
P38d/MAPK13 = target: T1, P38d/MAPK13 (Homo sapiens, UniProt O15264); details: 500 nM; relative to DMSO; read-out: Residual enzymatic activity
T1 construct: purchased Reaction Biology Corporation
In short: (§1)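 Radiometric kinase assay run by a standard protocol. Unbound phosphate was removed by washing filters in phosphoric acid, and product radioactivity gave percent remaining kinase activity versus DMSO vehicle reactions. Run in duplicate.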

DYRK3 = target: T2, DYRK3 (Homo sapiens, UniProt O43781); details: 500 nM; relative to DMSO; read-out: Residual enzymatic activity
T2 construct: purchased Reaction Biology Corporation
In short: as §1

ACK1 = target: T3, ACK1 (Homo sapiens, UniProt Q07912); details: for remaining activity at 0.5 µM: 500 nM, relative to DMSO, read-out: Residual enzymatic activity
T3 construct: purchased Reaction Biology Corporation (assay service)
T3 sequence (Q07912 whole entry): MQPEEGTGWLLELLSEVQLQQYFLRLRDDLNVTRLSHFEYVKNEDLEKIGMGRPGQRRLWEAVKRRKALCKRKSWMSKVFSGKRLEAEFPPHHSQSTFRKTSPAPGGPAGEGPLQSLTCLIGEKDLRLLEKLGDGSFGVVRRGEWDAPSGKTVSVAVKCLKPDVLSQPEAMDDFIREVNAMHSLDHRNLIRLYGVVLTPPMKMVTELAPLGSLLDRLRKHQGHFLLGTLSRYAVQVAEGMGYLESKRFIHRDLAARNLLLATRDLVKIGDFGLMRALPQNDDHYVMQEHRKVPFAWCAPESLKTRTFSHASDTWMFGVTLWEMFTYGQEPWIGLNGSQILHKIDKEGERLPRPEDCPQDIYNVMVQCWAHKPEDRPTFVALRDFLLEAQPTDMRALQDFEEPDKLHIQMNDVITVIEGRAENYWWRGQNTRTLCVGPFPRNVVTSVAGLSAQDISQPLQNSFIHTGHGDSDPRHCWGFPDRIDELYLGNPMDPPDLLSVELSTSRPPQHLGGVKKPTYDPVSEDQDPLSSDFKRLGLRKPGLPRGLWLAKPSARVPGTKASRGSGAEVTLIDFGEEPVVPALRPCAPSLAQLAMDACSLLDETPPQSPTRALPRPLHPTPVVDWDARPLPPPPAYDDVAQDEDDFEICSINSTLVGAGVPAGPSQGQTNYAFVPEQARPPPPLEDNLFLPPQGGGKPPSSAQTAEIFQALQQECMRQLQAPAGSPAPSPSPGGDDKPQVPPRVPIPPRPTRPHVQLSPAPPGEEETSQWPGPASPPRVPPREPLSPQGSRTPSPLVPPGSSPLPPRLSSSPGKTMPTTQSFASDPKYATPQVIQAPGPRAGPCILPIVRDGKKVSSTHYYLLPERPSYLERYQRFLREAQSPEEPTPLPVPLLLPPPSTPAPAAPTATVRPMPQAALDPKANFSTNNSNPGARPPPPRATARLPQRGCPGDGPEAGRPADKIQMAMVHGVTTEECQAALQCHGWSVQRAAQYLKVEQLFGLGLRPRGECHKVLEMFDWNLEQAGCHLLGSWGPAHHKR
In short: as §1

SGK3/SGKL = target: T4, SGK3/SGKL (Homo sapiens, UniProt Q96BR1); details: 500 nM; relative to DMSO; read-out: Residual enzymatic activity
T4 construct: purchased Reaction Biology Corporation
In short: as §1

CLK3 = target: T5, CLK3 (Homo sapiens, UniProt P49761); details: 500 nM; relative to DMSO; read-out: Residual enzymatic activity
T5 construct: purchased Reaction Biology Corporation
In short: as §1

p70S6Kb/RPS6KB2 = target: T6, p70S6Kb/RPS6KB2 (Homo sapiens, UniProt Q9UBS0); details: 500 nM; relative to DMSO; read-out: Residual enzymatic activity
T6 construct: purchased Reaction Biology Corporation
In short: as §1

IKKe/IKBKE = target: T7, IKKe/IKBKE (Homo sapiens, UniProt Q14164); details: 500 nM; relative to DMSO; read-out: Residual enzymatic activity
T7 construct: purchased Reaction Biology Corporation
In short: as §1

TAK1 = target: T8, TAK1 (Homo sapiens, UniProt O43318); details: 500 nM; relative to DMSO; read-out: Residual enzymatic activity
T8 construct: purchased Reaction Biology Corporation
In short: as §1

IGF1R = target: T9, IGF1R (Homo sapiens, UniProt P08069); details: 500 nM; relative to DMSO; read-out: Residual enzymatic activity
T9 construct: purchased Reaction Biology Corporation
In short: as §1

CDK2/cyclin A = target: T10, CDK2/cyclin A (Homo sapiens, UniProt P24941); details: 500 nM; relative to DMSO; read-out: Residual enzymatic activity
T10 construct: purchased Reaction Biology Corporation
In short: as §1

NEK1 = target: T11, NEK1 (Homo sapiens, UniProt Q96PY6); details: 500 nM; relative to DMSO; read-out: Residual enzymatic activity
T11 construct: purchased Reaction Biology Corporation
In short: as §1

GRK2 = target: T12, GRK2 (Homo sapiens, UniProt P25098); details: 500 nM; relative to DMSO; read-out: Residual enzymatic activity
T12 construct: purchased Reaction Biology Corporation
In short: as §1

SIK3 = target: T13, SIK3 (Homo sapiens, UniProt Q9Y2K2); details: 500 nM; relative to DMSO; read-out: Residual enzymatic activity
T13 construct: purchased Reaction Biology Corporation
In short: as §1

STK38/NDR1 = target: T14, STK38/NDR1 (Homo sapiens, UniProt Q15208); details: 500 nM; relative to DMSO; read-out: Residual enzymatic activity
T14 construct: purchased Reaction Biology Corporation
In short: as §1

PKAcb = target: T15, PKAcb (Homo sapiens, UniProt P22694); details: 500 nM; relative to DMSO; read-out: Residual enzymatic activity
T15 construct: purchased Reaction Biology Corporation
In short: as §1

ABL2/ARG = target: T16, ABL2/ARG (Homo sapiens, UniProt P42684); details: for remaining activity at 0.5 µM: 500 nM, relative to DMSO, read-out: Residual enzymatic activity
T16 construct: purchased Reaction Biology Corporation (assay service)
T16 sequence (P42684 whole entry): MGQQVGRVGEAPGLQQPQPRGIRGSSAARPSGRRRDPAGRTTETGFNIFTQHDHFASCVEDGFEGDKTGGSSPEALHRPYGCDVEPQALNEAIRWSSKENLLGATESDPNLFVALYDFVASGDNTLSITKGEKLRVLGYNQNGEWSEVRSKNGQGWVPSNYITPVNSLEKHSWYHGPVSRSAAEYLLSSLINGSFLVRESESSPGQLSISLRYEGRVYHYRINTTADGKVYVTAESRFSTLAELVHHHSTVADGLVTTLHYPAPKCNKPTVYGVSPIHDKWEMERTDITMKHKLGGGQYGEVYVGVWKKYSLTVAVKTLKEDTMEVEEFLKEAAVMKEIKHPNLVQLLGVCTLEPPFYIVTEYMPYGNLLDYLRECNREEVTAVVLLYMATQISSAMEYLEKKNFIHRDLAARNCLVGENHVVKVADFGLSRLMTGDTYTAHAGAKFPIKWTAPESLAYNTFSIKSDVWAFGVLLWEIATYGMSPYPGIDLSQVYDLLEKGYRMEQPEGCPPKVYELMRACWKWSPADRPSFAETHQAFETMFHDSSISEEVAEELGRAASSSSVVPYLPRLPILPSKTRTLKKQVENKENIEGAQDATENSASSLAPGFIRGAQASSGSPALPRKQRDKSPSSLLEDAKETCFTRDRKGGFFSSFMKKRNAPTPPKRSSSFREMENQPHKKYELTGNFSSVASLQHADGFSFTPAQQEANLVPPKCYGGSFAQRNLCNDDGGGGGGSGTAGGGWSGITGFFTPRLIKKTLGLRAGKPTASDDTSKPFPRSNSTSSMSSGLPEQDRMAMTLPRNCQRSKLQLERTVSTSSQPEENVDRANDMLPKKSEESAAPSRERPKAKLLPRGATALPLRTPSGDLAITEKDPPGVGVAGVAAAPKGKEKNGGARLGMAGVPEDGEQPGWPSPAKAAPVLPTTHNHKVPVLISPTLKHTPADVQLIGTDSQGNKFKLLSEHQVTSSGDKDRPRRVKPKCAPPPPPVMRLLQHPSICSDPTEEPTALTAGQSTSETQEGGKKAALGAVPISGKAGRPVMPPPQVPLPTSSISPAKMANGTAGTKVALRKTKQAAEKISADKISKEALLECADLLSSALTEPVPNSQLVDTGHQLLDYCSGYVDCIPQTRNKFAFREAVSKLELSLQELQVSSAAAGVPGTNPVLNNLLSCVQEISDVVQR
In short: as §1

JAK3 = target: T17, JAK3 (Homo sapiens, UniProt P52333); details: 500 nM; relative to DMSO; read-out: Residual enzymatic activity
T17 construct: purchased Reaction Biology Corporation
In short: as §1

GCK/MAP4K2 = target: T18, GCK/MAP4K2 (Homo sapiens, UniProt Q12851); details: 500 nM; relative to DMSO; read-out: Residual enzymatic activity
T18 construct: purchased Reaction Biology Corporation
In short: as §1

ARAF = target: T19, ARAF (Homo sapiens, UniProt P10398); details: 500 nM; relative to DMSO; read-out: Residual enzymatic activity
T19 construct: purchased Reaction Biology Corporation
In short: as §1

ERK1 = target: T20, ERK1 (Homo sapiens, UniProt P27361); details: 500 nM; relative to DMSO; read-out: Residual enzymatic activity
T20 construct: purchased Reaction Biology Corporation
In short: as §1

TYK2 = target: T21, TYK2 (Homo sapiens, UniProt P29597); details: 500 nM; relative to DMSO; read-out: Residual enzymatic activity
T21 construct: purchased Reaction Biology Corporation
In short: as §1

MAPKAPK5/PRAK = target: T22, MAPKAPK5/PRAK (Homo sapiens, UniProt Q8IW41); details: 500 nM; relative to DMSO; read-out: Residual enzymatic activity
T22 construct: purchased Reaction Biology Corporation
In short: as §1

CK1a1 = target: T23, CK1a1 (Homo sapiens, UniProt P48729); details: 500 nM; relative to DMSO; read-out: Residual enzymatic activity
T23 construct: purchased Reaction Biology Corporation
In short: as §1

DMPK = target: T24, DMPK (Homo sapiens, UniProt Q09013); details: 500 nM; relative to DMSO; read-out: Residual enzymatic activity
T24 construct: purchased Reaction Biology Corporation
In short: as §1

ABL1 = target: T25, ABL1 (Homo sapiens, UniProt P00519); details: 500 nM, relative to DMSO; for remaining activity at 0.5 µM: read-out: Residual enzymatic activity
T25 construct: purchased Reaction Biology Corporation
T25 sequence (P00519 whole entry): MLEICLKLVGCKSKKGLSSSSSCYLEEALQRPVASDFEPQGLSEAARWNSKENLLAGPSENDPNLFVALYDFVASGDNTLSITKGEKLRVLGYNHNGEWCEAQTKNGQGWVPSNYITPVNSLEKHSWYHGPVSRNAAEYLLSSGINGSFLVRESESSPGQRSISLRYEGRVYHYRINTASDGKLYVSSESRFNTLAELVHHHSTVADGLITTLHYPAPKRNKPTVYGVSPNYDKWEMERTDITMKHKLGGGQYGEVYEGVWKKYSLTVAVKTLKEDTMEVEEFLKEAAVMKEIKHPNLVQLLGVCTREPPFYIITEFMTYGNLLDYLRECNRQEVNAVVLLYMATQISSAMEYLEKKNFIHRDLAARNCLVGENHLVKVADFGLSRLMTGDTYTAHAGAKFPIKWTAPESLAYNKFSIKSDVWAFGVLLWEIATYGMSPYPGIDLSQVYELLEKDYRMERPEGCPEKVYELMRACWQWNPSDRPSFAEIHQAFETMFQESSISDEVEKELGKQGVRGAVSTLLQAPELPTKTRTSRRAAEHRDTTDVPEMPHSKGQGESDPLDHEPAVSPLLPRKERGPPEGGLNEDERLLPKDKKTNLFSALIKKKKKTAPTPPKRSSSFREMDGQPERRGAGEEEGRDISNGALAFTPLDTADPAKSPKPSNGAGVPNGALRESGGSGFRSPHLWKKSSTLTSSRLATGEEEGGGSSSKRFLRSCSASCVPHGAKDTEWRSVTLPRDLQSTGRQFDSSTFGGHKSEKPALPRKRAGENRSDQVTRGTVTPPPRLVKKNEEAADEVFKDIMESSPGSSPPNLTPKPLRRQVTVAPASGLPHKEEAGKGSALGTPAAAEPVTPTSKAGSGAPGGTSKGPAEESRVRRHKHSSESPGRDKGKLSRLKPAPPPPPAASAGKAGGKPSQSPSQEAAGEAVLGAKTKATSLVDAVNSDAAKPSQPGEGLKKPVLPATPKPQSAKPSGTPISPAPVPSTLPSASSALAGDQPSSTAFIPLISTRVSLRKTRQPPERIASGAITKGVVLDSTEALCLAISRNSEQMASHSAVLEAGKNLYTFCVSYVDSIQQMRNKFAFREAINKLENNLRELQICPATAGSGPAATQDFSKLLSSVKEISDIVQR
In short: as §1

WNK1 = target: T26, WNK1 (Homo sapiens, UniProt Q9H4A3); details: 500 nM; relative to DMSO; read-out: Residual enzymatic activity
T26 construct: purchased Reaction Biology Corporation
In short: as §1

PHKg1 = target: T27, PHKg1 (Homo sapiens, UniProt Q16816); details: 500 nM; relative to DMSO; read-out: Residual enzymatic activity
T27 construct: purchased Reaction Biology Corporation
In short: as §1

PDGFRb = target: T28, PDGFRb (Homo sapiens, UniProt P09619); details: for remaining activity at 0.5 µM: 500 nM, relative to DMSO, read-out: Residual enzymatic activity
T28 construct: purchased Reaction Biology Corporation (Malvern, PA, USA)
T28 sequence (P09619 33-1106): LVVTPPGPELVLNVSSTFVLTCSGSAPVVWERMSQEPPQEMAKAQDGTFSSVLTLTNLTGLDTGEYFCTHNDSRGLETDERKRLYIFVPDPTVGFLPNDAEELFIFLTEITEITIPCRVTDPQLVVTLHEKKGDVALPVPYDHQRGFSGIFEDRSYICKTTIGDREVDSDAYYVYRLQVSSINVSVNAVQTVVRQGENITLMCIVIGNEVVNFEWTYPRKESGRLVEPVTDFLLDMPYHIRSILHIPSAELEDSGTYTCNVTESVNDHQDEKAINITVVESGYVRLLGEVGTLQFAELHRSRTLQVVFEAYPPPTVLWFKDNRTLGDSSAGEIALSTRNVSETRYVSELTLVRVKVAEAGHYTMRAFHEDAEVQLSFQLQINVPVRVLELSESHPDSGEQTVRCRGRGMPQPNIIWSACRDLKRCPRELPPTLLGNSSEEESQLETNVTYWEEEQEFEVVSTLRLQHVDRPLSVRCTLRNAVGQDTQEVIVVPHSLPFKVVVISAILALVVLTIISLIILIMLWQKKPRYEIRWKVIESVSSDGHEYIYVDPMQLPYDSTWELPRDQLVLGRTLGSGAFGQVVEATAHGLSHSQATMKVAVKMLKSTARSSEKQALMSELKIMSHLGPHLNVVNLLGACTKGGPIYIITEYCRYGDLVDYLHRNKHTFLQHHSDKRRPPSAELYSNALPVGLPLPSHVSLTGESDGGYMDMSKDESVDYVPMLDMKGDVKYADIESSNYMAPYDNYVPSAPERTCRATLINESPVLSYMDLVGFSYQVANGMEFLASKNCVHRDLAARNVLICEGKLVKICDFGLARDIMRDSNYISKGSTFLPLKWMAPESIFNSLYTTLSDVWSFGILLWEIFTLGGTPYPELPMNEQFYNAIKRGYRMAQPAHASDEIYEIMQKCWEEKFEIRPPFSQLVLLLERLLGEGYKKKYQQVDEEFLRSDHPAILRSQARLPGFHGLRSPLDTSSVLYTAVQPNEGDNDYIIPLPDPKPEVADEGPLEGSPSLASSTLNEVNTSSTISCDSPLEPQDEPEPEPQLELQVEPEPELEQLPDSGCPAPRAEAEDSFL
In short: as §1

RAF1 = target: T29, RAF1 (Homo sapiens, UniProt P04049); details: 500 nM; relative to DMSO; read-out: Residual enzymatic activity
T29 construct: purchased Reaction Biology Corporation
In short: as §1

LKB1 = target: T30, LKB1 (Homo sapiens, UniProt Q15831); details: 500 nM; relative to DMSO; read-out: Residual enzymatic activity
T30 construct: purchased Reaction Biology Corporation
In short: as §1

P38b/MAPK11 = target: T31, P38b/MAPK11 (Homo sapiens, UniProt Q15759); details: 500 nM; relative to DMSO; read-out: Residual enzymatic activity
T31 construct: purchased Reaction Biology Corporation
In short: as §1

BLK = target: T32, BLK (Homo sapiens, UniProt P51451); details: for remaining activity at 0.5 µM: 500 nM, relative to DMSO, read-out: Residual enzymatic activity
T32 construct: purchased Reaction Biology Corporation (assay service)
T32 sequence (P51451 whole entry): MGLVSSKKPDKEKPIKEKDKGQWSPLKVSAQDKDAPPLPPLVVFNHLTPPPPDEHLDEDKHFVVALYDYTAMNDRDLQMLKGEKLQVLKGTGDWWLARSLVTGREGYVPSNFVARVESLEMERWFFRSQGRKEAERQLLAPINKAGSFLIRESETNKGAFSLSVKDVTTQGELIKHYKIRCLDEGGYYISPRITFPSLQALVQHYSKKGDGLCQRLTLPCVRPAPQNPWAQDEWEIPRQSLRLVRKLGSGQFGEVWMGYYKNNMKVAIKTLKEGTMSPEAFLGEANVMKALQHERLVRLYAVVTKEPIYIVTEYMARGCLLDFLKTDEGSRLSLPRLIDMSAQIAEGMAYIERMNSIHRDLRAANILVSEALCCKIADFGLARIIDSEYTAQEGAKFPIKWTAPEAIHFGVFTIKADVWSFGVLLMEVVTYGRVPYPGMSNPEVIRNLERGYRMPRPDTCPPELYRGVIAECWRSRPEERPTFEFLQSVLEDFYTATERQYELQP
In short: as §1

CAMK2a = target: T33, CAMK2a (Homo sapiens, UniProt Q9UQM7); details: 500 nM; relative to DMSO; read-out: Residual enzymatic activity
T33 construct: purchased Reaction Biology Corporation
In short: as §1

GLK/MAP4K3 = target: T34, GLK/MAP4K3 (Homo sapiens, UniProt Q8IVH8); details: 500 nM; relative to DMSO; read-out: Residual enzymatic activity
T34 construct: purchased Reaction Biology Corporation
In short: as §1

PKN3/PRK3 = target: T35, PKN3/PRK3 (Homo sapiens, UniProt Q6P5Z2); details: 500 nM; relative to DMSO; read-out: Residual enzymatic activity
T35 construct: purchased Reaction Biology Corporation
In short: as §1

CAMKK1 = target: T36, CAMKK1 (Homo sapiens, UniProt Q8N5S9); details: 500 nM; relative to DMSO; read-out: Residual enzymatic activity
T36 construct: purchased Reaction Biology Corporation
In short: as §1

[1] = 10-dose mode, threefold serial dilution from 10 μM

SMILES: COc1cc(Nc2ncnc(Nc3cc4c(cn3)NC(=O)C(C)(C)O4)n2)cc(OC)c1OC [MT-SYK-03]
- remaining activity at 0.5 µM (P38d/MAPK13): 119%
- remaining activity at 0.5 µM (DYRK3): 91.6%
- remaining activity at 0.5 µM (ACK1): 5.4%
- IC50 (ACK1; [1]): 86 nM and 85.7 nM
- remaining activity at 0.5 µM (SGK3/SGKL): 103%
- remaining activity at 0.5 µM (CLK3): 103%
- remaining activity at 0.5 µM (p70S6Kb/RPS6KB2): 91.4%
- remaining activity at 0.5 µM (IKKe/IKBKE): 77.5%
- remaining activity at 0.5 µM (TAK1): 103%
- remaining activity at 0.5 µM (IGF1R): 90%
- remaining activity at 0.5 µM (CDK2/cyclin A): 83.1%
- remaining activity at 0.5 µM (NEK1): 52.7%
- remaining activity at 0.5 µM (GRK2): 101%
- remaining activity at 0.5 µM (SIK3): 83.4%
- remaining activity at 0.5 µM (STK38/NDR1): 112%
- remaining activity at 0.5 µM (PKAcb): 98.4%
- remaining activity at 0.5 µM (ABL2/ARG): 32.3%
- IC50 (ABL2/ARG; [1]): 120 nM
- remaining activity at 0.5 µM (JAK3): 74.7%
- remaining activity at 0.5 µM (GCK/MAP4K2): 100%
- remaining activity at 0.5 µM (ARAF): 59.7%
- remaining activity at 0.5 µM (ERK1): 119%
- remaining activity at 0.5 µM (TYK2): 71.2%
- remaining activity at 0.5 µM (MAPKAPK5/PRAK): 92.3%
- remaining activity at 0.5 µM (CK1a1): 101%
- remaining activity at 0.5 µM (DMPK): 94.3%
- Residual enzymatic activity (ABL1): 68.0%
- remaining activity at 0.5 µM (ABL1): > 54%
- remaining activity at 0.5 µM (WNK1): 106%
- remaining activity at 0.5 µM (PHKg1): 97.1%
- remaining activity at 0.5 µM (PDGFRb): 24.5%
- IC50 (PDGFRb; [1]): 4.5 nM
- remaining activity at 0.5 µM (RAF1): 91.5%
- remaining activity at 0.5 µM (LKB1): 101%
- remaining activity at 0.5 µM (P38b/MAPK11): 103%
- remaining activity at 0.5 µM (BLK): 19.8%
- IC50 (BLK; [1]): 9.6 nM
- inhibition at 0.5 µM (BLK; read-out: Inhibition at 500 nM): > 90%
- remaining activity at 0.5 µM (CAMK2a): 94.1%
- remaining activity at 0.5 µM (GLK/MAP4K3): 94.1%
- remaining activity at 0.5 µM (PKN3/PRK3): 90%
- remaining activity at 0.5 µM (CAMKK1): 102%

SMILES: COc1cc(Nc2ncc(F)c(Nc3ccc4c(n3)NC(=O)C(C)(C)O4)n2)cc(OC)c1OC [R406, reference compound]
- remaining activity at 0.5 µM (P38d/MAPK13): 84.7%
- remaining activity at 0.5 µM (DYRK3): 90.6%
- remaining activity at 0.5 µM (ACK1): 0.6%
- remaining activity at 0.5 µM (SGK3/SGKL): 100%
- remaining activity at 0.5 µM (CLK3): 89.4%
- remaining activity at 0.5 µM (p70S6Kb/RPS6KB2): 74.6%
- remaining activity at 0.5 µM (IKKe/IKBKE): 16.1%
- remaining activity at 0.5 µM (TAK1): 48.3%
- remaining activity at 0.5 µM (IGF1R): 60.3%
- remaining activity at 0.5 µM (CDK2/cyclin A): 47.6%
- remaining activity at 0.5 µM (NEK1): 7%
- remaining activity at 0.5 µM (GRK2): 97.2%
- remaining activity at 0.5 µM (SIK3): 75.4%
- remaining activity at 0.5 µM (STK38/NDR1): 70.4%
- remaining activity at 0.5 µM (PKAcb): 70.1%
- remaining activity at 0.5 µM (ABL2/ARG): 34.5%
- remaining activity at 0.5 µM (JAK3): 10.4%
- remaining activity at 0.5 µM (GCK/MAP4K2): 77.5%
- remaining activity at 0.5 µM (ARAF): 41%
- remaining activity at 0.5 µM (ERK1): 97.4%
- remaining activity at 0.5 µM (TYK2): 10.5%
- remaining activity at 0.5 µM (MAPKAPK5/PRAK): 99.4%
- remaining activity at 0.5 µM (CK1a1): 95.5%
- remaining activity at 0.5 µM (DMPK): 90.5%
- remaining activity at 0.5 µM (ABL1): 68.6%
- remaining activity at 0.5 µM (WNK1): 103%
- remaining activity at 0.5 µM (PHKg1): 61.5%
- remaining activity at 0.5 µM (PDGFRb): 6.1%
- remaining activity at 0.5 µM (RAF1): 73.3%
- remaining activity at 0.5 µM (LKB1): 69.3%
- remaining activity at 0.5 µM (P38b/MAPK11): 101%
- remaining activity at 0.5 µM (BLK): 16.7%
- remaining activity at 0.5 µM (CAMK2a): 94.4%
- remaining activity at 0.5 µM (GLK/MAP4K3): 65.8%
- remaining activity at 0.5 µM (PKN3/PRK3): 40.8%
- remaining activity at 0.5 µM (CAMKK1): 91.9%
